Assay results published in ChEMBL document CHEMBL4725286, “Synthesis and antibiofilm evaluation of 3-hydroxy-2,3-dihydroquinazolin-4(1H)-one derivatives against opportunistic pathogen Acinetobacter baumannii” (2020).
Active and inactive are the calls of the source. The calls are words filed in the database; no cut-off is given here.

Assays:
[1] = system: Acinetobacter baumannii; assay: Antibiofilm activity against Acinetobacter baumannii assessed as inhibition of planktonic growth at 300 uM; assay type: functional, organism-based
[2] = system: Acinetobacter baumannii; assay: Antibiofilm activity against Acinetobacter baumannii assessed as inhibition of biofilm formation at 50 uM incubated for 24 hrs at stationary condition by crystal violet staining based assay relative to control; assay type: functional
[3] = system: Pseudomonas aeruginosa; assay: Antibiofilm activity against Pseudomonas aeruginosa ATCC 27853 assessed as inhibition of biofilm formation at 50 uM incubated for 24 hrs at stationary condition by crystal violet staining based assay relative to control; assay type: functional
[4] = system: Escherichia coli; assay: Antibiofilm activity against Escherichia coli assessed as inhibition of biofilm formation at 50 uM incubated for 24 hrs at stationary condition by crystal violet staining based assay relative to control; assay type: functional; details: DH5[alpha]
[5] = system: Acinetobacter baumannii; assay: Antibiofilm activity against drug-resistant Acinetobacter baumannii 1925052 assessed as inhibition of biofilm formation at 50 uM incubated for 24 hrs at stationary condition by crystal violet staining based assay relative to control; assay type: functional
[6] = system: Acinetobacter baumannii; assay: Synergistic antibacterial activity against Acinetobacter baumannii S1 incubated for 24 hrs in presence of gentamycin sulfate by checkerboard titration assay; assay type: functional
[7] = system: Acinetobacter baumannii; assay: Synergistic antibacterial activity against Acinetobacter baumannii S1 assessed as FICI incubated for 24 hrs in presence of gentamycin sulfate by checkerboard titration assay; assay type: functional
[8] = system: Acinetobacter baumannii; assay: Induction of morphological changes in Acinetobacter baumannii biofilm inhibition assessed as reduction in extracellular polysaccharide at 10 uL preincubated for 24 hrs followed by incubating in dark for 1 hr by optical density based plate reader assay relative to control; assay type: functional; design: scale not given: the % may be the effect or the level left
[9] = system: Acinetobacter baumannii; assay: Antibacterial activity against Acinetobacter baumannii S1 incubated for 24 hrs by checkerboard titration assay; assay type: functional
[10] = system: Acinetobacter baumannii; assay: Synergistic antibacterial activity against Acinetobacter baumannii S1 assessed as FIC incubated for 24 hrs in presence of gentamycin sulfate by checkerboard titration assay; assay type: functional
[11] = system: Acinetobacter baumannii; assay: Antibacterial activity against Acinetobacter baumannii assessed as reduction in motility at 50 uM after 24 hrs photographic-based method; assay type: functional, organism-based
[12] = system: Acinetobacter baumannii; assay: Synergistic antibacterial activity against Acinetobacter baumannii S1 assessed as FIC incubated for 24 hrs in presence of 1-(3-chlorobenzyl)-3-hydroxy-2-(2-hydroxyphenyl)-2,3-dihydroquinazolin-4(1H)-one by checkerboard titration assay; assay type: functional
[13] = system: Acinetobacter baumannii; assay: Synergistic antibacterial activity against Acinetobacter baumannii S1 assessed as FIC incubated for 24 hrs in presence of 3-hydroxy-2-isopropyl-1-octyl-2,3-dihydroquinazolin-4(1H)-one by checkerboard titration assay; assay type: functional
[14] = system: Acinetobacter baumannii; assay: Antibacterial activity against Acinetobacter baumannii assessed as bacterial death at 50 uM incubated for 15 mins by SYTO9 and PI staining based fluorescence microscopic method; assay type: functional, organism-based

Compound	inhibition [1]	inhibition at 50 µM [2]	other results
CCCCCCCCN1c2ccccc2C(=O)N(O)C1c1ccc(Cl)cc1 (stereo not given)	inactive	5.2%	
O=C1c2ccccc2NC(c2ccccc2O)N1O (stereo not given)	inactive	16.3%	
CCCCCCCCN1c2ccccc2C(=O)N(O)C1c1ccc(O)cc1 (stereo not given)	inactive	13.3%	
O=C(Cc1cccc(Br)c1)N[C@H]1CCOC1=O		7.9%	inhibition at 50 µM [3]: -1.72%; inhibition at 50 µM [4]: 50.1%; inhibition at 50 µM [5]: 28.2%
CCCCCCCCN1c2ccccc2C(=O)N(O)C1c1ccc(C)cc1 (stereo not given)	inactive	9.2%	
CCCCCCCCCCN1c2ccccc2C(=O)N(O)C1c1ccccc1O (stereo not given)	inactive	30.7%	inhibition at 50 µM [3]: 44.5%; MIC [6]: 2 µg/mL; fractional inhibitory concentration index (FICI) [7]: 0.252; Activity [8]: 31%; inhibition at 50 µM [4]: 40.8%; MIC [9]: 1020 µg/mL; inhibition at 50 µM [5]: 43.4%; Ratio [10]: 0.002; Activity [11]: Active
CCCCCCCCN1c2ccccc2C(=O)N(O)C1c1ccccc1OC (stereo not given)	inactive	7.2%	
O=C1c2ccccc2N(Cc2cccc(Cl)c2)C(c2ccccc2O)N1O (stereo not given)	inactive	34.1%	inhibition at 50 µM [3]: 55.4%; MIC [6]: 2 µg/mL; fractional inhibitory concentration index (FICI) [7]: 0.252; Activity [8]: 34%; inhibition at 50 µM [4]: 27.5%; MIC [9]: 1020 µg/mL; inhibition at 50 µM [5]: 38.2%; Ratio [10]: 0.002; Activity [11]: Active
CCCCCCCCCCCCCCN1c2ccccc2C(=O)N(O)C1c1ccccc1O (stereo not given)	inactive	20.9%	
CN[C@@H]1[C@@H](O)[C@@H](O[C@@H]2[C@@H](O)[C@H](O[C@H]3O[C@H]([C@@H](C)NC)CC[C@H]3N)[C@@H](N)C[C@H]2N)OC[C@]1(C)O.O=S(=O)(O)O			MIC [9]: 0.25 µg/mL; FIC [12]: 0.25; FIC [13]: 0.25
O=C1c2ccccc2N(Cc2ccccc2)C(c2ccccc2O)N1O (stereo not given)	inactive	17.5%	
CCCCCCCCN1c2ccccc2C(=O)N(O)C1c1ccc(OC)cc1 (stereo not given)	inactive	1.3%	
O=C1c2ccccc2N(Cc2cccc(F)c2)C(c2ccccc2O)N1O (stereo not given)	inactive	27.5%	
N#Cc1ccccc1CN1c2ccccc2C(=O)N(O)C1c1ccccc1O (stereo not given)	inactive	17.6%	
CCCCCCCCN1c2ccccc2C(=O)N(O)C1C(C)C (stereo not given)	inactive	10.2%	Activity [14]: inactive
CCCCN1c2ccccc2C(=O)N(O)C1c1ccccc1O (stereo not given)	inactive	29.7%	
CCCCCCCCN1c2ccccc2C(=O)N(O)C1c1ccccc1 (stereo not given)	inactive	5.5%	
CCC/C=C/C1N(O)C(=O)c2ccccc2N1CCCCCCCC (stereo not given)	inactive	2.4%	
CCCCCCCCCCCCN1c2ccccc2C(=O)N(O)C1c1ccccc1O (stereo not given)	inactive	8.9%	
CCCCCCN1c2ccccc2C(=O)N(O)C1c1ccccc1O (stereo not given)	inactive	7.7%	
CCCCCCCCN1c2ccccc2C(=O)N(O)C1c1ccccc1O (stereo not given)	inactive	23.5%	
CN1c2ccccc2C(=O)N(O)C1c1ccccc1O (stereo not given)	inactive	14.6%	
CCCCCCCCCCCCCCCCN1c2ccccc2C(=O)N(O)C1c1ccccc1O (stereo not given)	inactive	4.7%	
CCCCCCCCN1c2ccccc2C(=O)N(O)C1c1ccccc1Cl (stereo not given)	inactive	8.1%	
